Experimental data as given in doi:10.1101/2023.04.10.536218v2, “A novel and highly specific Forssman antigen-binding protein from sheep polyomavirus” (biorxiv, 2023).

Target: ShPyV VP1
Conditions: glycan coupled to BSA by reductive amination and immobilised on CM5 chip; multivalent (avidity); pH 7.4, 25 °C; kinetic fit

`CC(=O)N[C@H]1[C@@H](O[C@H]2[C@@H](O)[C@@H](CO)O[C@@H](O[C@H]3[C@@H](O)[C@@H](CO)O[C@H](O[C@@H]4[C@H](O)[C@@H](O)[C@H](O[C@H]5[C@H](O)[C@@H](O)C(O)O[C@@H]5CO)O[C@@H]4CO)[C@@H]3O)[C@@H]2NC(C)=O)O[C@H](CO)[C@H](O)[C@@H]1O` (stereo partly shown) [FP, Forssman pentaose] was tested. Which Kd did it give?
Its Kd is 3.6 nM.
